{"source": "patent US20060134197A1", "about": "“Method of reducing unpleasant taste and/or unpleasant odor” (priority 2002, published 2006)", "key": {"[1]": {"assay": "Inhibiting the production of aldehydes from heated minced mackerel (headspace GC)", "details": "minced mackerel with 5% saccharide solution; for Relative rate of inhibiting the production of acetaldehyde / Relative rate of inhibiting the production of butanal / Relative rate of inhibiting the production of decanal / Relative rate of inhibiting the production of heptanal / Relative rate of inhibiting the production of hexanal / Relative rate of inhibiting the production of nonanal / Relative rate of inhibiting the production of octanal / Relative rate of inhibiting the production of pentanal / Relative rate of inhibiting the production of propanal: headspace gas; for Relative rate of inhibiting the production of total aldehydes: sum of nine aldehydes", "description": "Five grams of minced mackerel, prepared by mincing commercialized mackerel without head part, internal organs and bone with a mincer to homogeneity, was placed in a 20-ml vial, and admixed with 5 ml of an aqueous solution containing on a dry solid basis 5% of “TREHA®”, a food grade hydrous α,α-trehalose commercialized by Hayashibara Biochemical laboratories, Inc., Okayama, Japan (purity 99.0% or more), sucrose (a commercialized granulated sugar), or a syrupy saccharide mixture containing saccharide derivatives of α,α-trehalose prepared in Example 1. The resulting vials were sealed with a butyl gum cap to prepare test samples. As a control, a vial containing 5 g of the minced mackerel and 5 ml of deionized water was sealed with a butyl gum cap for a control sample. These samples were heated in boiled water for 15 minutes, cooled in running water, and heated at 80° C. for five minutes. The resulting headspace gas was taken from each of the vials and allowed to measure the contents of amines, hydrogen sulfide and aldehydes.\nMeasurement of the content of aldehydes was carried out by subjecting 2 ml of the headspace gas to analysis by GC-14B gas chromatography, a hydrogen flame ionizing detector commercialized by Shimazu co., Ltd., Kyoto, Japan, with flowing helium gas as a carrier gas in 1 ml/minute, and using TC-FFAP capillary column, 30min length and 0.52 mm in internal diameter (df=1 μm, sprit rate 1/30), commercialized by GL Science Company, with an increasing column temperature from 40° C. to 250° C. at a rate of 5° C./minute.\n(§1) The values of the production of amines, hydrogen sulfide and aldehydes of each test sample were compared with the value of control defined as 100 to calculate the relative values thereof. And then, the relative rates of inhibiting the production of amines, hydrogen sulfide and aldehydes were respectively calculated by 100 minus each of the relative values."}, "[2]": {"assay": "Panel test of lowering iron taste and/or smell of aqueous bivalent iron ion solution", "set-up": "key to Effect on lowering iron taste and/or smell: “Not effective (symbol “−”)” meaning of that the test aqueous solution showed no difference in iron taste and/or smell from that the control aqueous solution; “Slightly effective (symbol “+”)”, the test aqueous solution showes weaker iron taste and/or smell than the control aqueous solution but the deference was not significant; “Effective (symbol “++”)”, the test aqueous solution showed a slight iron taste and/or smell but it was significantly weaker than that of the control aqueous solution; “Strongly effective (symbol “+++”)”, the test aqueous solution showed almost no iron taste and/or smell", "details": "for Effect on lowering iron taste and/or smell: 5 mg bivalent iron per 100 ml, 12 panels; for Concentration effective on lowering unpleasant taste and/or smell of aqueous iron ion solution: to the total weight of the aqueous solution, dry solid basis", "description": "To confirm the effect of various saccharides on inhibiting taste and/or smell of bivalent iron ion, the following experiment was carried out. An aqueous solution containing bivalent iron ion was prepared by dissolving 0.05556 part by weight of ammonium ferric citrate (iron content of about 18%), and 0.1 part by weight of ascorbic acid in 100 parts by weight of deionized water. Test aqueous solutions containing 5 mg of bivalent iron per 100 ml of water and 0.5, 1.0, 1.5, 2.0 or 5.0% of saccharide selected from sucrose, maltose (hydrous crystalline maltose commercialized by Hayashibara Biochemical Laboratories, Inc., Okayama, Japan, purify 99.0% or more), α,α-trehalose (hydrous crystalline α,α-trehalose commercialized by Hayashibara Biochemical Laboratories, Inc., Okayama, Japan, purity 99.0% or more), α-glucosyl α,α-trehalose (hydrous crystalline α-glucosyl α,α-trehalose prepared in Experiment B-1 of Japanese Patent Publication (Kokai) No. 291,986/1995, purity 99.0% or more), and […] (powdery α-maltosyl α,α-trehalose prepared in Example 5 described following, purity 98.1%) were prepared by admixing the above aqueous solution containing bivalent iron with an equal volume of a pre-prepared aqueous solution containing any one of the above saccharides at a concentration of 1.0, 2.0, 3.0, 4.0 or 10.0%, on a dry solid basis. As a control, an aqueous solution was prepared by admixing the aqueous solution containing bivalent iron ion with an equal volume of warter instead of the aqueous saccharide solution.\nThe effect on lowering iron taste and/or smell, namely unpleasant taste and/or smell of iron ion existing in a test aqueous solution at a concentration of 5 mg per 100 ml was judged by a panel test using 12 panels. […] In the judgement for each test aqueous solution, ten or more of 12 panels answered the same judgement."}, "[3]": {"assay": "Inhibiting the production of lower aldehydes and 2,3-butandion from heated cacao powder", "details": "1 g cacao powder in 4 ml of 2.5% saccharide solution; microwave, then 100° C. five minutes", "source_text": "“Stuffy smell”, meaning a kind of foreign smell generated from cocoa, chocolate, and compositions thereof during their processes, is known to deteriorate their flavor. 2,3-Butandion and lower aldehydes are known as a causative substance of foreign smell. On the other hand, […], classified in lower aldehydes, is known as one of the aromatic ingredients of chocolates. To confirm the effect of saccharide derivatives of α,α-trehalose on inhibiting the production of such compounds, the following experiment was carried out. Four milliliters of 2.5%, on a dry solid basis, saccharide solution containing either of sucrose, “TREHA®” (an α,α-trehalose commercialized by Hayashibara Biochemical Laboratories, Inc., Okayama, Japan), a commercialized enzyme-treated starch syrup and a syrupy saccharide mixture containing saccharide derivatives of α,α-trehalose prepared in Example 1 (on a dry solid basis about 53% of saccharide derivatives of α,α-trehalose) was placed in a 20-ml vial and admixed with 1 g of cacao powder. The resulting vial was covered with a plastic warp and heated by a microwave oven (500 W) for five seconds. As a control, 4 ml of distilled water and 1 g of cacao powder were placed in the vial and treated similarly as in the saccharide solutions. These vials were sealed with a butyl gum cap over the plastic wrap and heated at 100° C. in a heat block for five minutes. Two milliliters of the resulting headspace gas was subjected to gas chromatography to measure the contents of lower aldehydes and 2,3-butandion according to the method in Experiment 5-4. The amount of total aldehydes was calculated by totalizing the measured amounts of three kinds of aldehydes and other aldehydes listed in Table 8.\nThe resulting value of the production of aldehydes or 2,3-butandion of each of the test samples was compared with the value of control defined as 100 to calculate the relative value of the production of them. And then, the relative rate of inhibiting the production of them was calculated by 100 minus the relative value."}, "[4]": {"assay": "Inhibiting the production of hydrogen sulfide from heated minced mackerel", "details": "minced mackerel with 5% saccharide solution, headspace gas", "description": "Five grams of minced mackerel, prepared by mincing commercialized mackerel without head part, internal organs and bone with a mincer to homogeneity, was placed in a 20-ml vial, and admixed with 5 ml of an aqueous solution containing on a dry solid basis 5% of “TREHA®”, a food grade hydrous α,α-trehalose commercialized by Hayashibara Biochemical laboratories, Inc., Okayama, Japan (purity 99.0% or more), sucrose (a commercialized granulated sugar), or a syrupy saccharide mixture containing saccharide derivatives of α,α-trehalose prepared in Example 1. The resulting vials were sealed with a butyl gum cap to prepare test samples. As a control, a vial containing 5 g of the minced mackerel and 5 ml of deionized water was sealed with a butyl gum cap for a control sample. […]\nSimilarly as in Experiment 4, the content of hydrogen sulfide was measured using 10 ml of a headspace gas by “GASTECH No. 4 LT”, a hydrogen sulfide detector commercialized by GL Science Corporation, under an aspiration time of one minute.\nas §1"}}, "data": [{"smiles": "OC[C@H]1O[C@H](O[C@H]2O[C@H](CO)[C@@H](O)[C@H](O)[C@H]2O)[C@H](O)[C@@H](O)[C@@H]1O", "note": "[α,α-Trehalose, α,α-trehalose]", "values": [{"measurement": "Relative rate of inhibiting the production of acetaldehyde", "setting": "[1]", "value": 73}, {"measurement": "Relative rate of inhibiting the production of butanal", "setting": "[1]", "value": 100}, {"measurement": "Relative rate of inhibiting the production of decanal", "setting": "[1]", "value": 76}, {"measurement": "Relative rate of inhibiting the production of heptanal", "setting": "[1]", "value": 88}, {"measurement": "Relative rate of inhibiting the production of hexanal", "setting": "[1]", "value": 93}, {"measurement": "Relative rate of inhibiting the production of nonanal", "setting": "[1]", "value": 100}, {"measurement": "Relative rate of inhibiting the production of octanal", "setting": "[1]", "value": 100}, {"measurement": "Relative rate of inhibiting the production of pentanal", "setting": "[1]", "value": 83}, {"measurement": "Relative rate of inhibiting the production of propanal", "setting": "[1]", "value": 98}, {"measurement": "Relative rate of inhibiting the production of total aldehydes", "setting": "[1]", "value": 80}, {"measurement": "Effect on lowering iron taste and/or smell", "setting": "[2]; saccharide 0.5%", "value": "−"}, {"measurement": "Effect on lowering iron taste and/or smell", "setting": "[2]; saccharide 1.0%", "value": "−"}, {"measurement": "Effect on lowering iron taste and/or smell", "setting": "[2]; saccharide 1.5%", "value": "+"}, {"measurement": "Effect on lowering iron taste and/or smell", "setting": "[2]; saccharide 2.0%", "value": "+"}, {"measurement": "Effect on lowering iron taste and/or smell", "setting": "[2]; saccharide 5.0%", "value": "++"}, {"measurement": "Concentration effective on lowering unpleasant taste and/or smell of aqueous iron ion solution", "setting": "[2]", "value": "≥ 1.5", "unit": "%"}, {"measurement": "Relative rate of inhibiting the production of 2,3-butandion", "setting": "[3]", "value": 100}, {"measurement": "Relative rate of inhibiting the production of acetaldehyde", "setting": "[3]", "value": 50}, {"measurement": "Relative rate of inhibiting the production of isobutanal", "setting": "[3]", "value": 58}, {"measurement": "Relative rate of inhibiting the production of other aldehydes", "setting": "[3]", "value": 0}, {"measurement": "Relative rate of inhibiting the production of propanal", "setting": "[3]", "value": 47}, {"measurement": "Relative rate of inhibiting the production of total aldehydes", "setting": "[3]", "value": 53}, {"measurement": "Relative rate of inhibiting the production of hydrogen sulfide", "setting": "[4]", "value": 26}]}, {"smiles": "OC[C@H]1O[C@@](CO)(O[C@H]2O[C@H](CO)[C@@H](O)[C@H](O)[C@H]2O)[C@@H](O)[C@@H]1O", "note": "[Sucrose, sucrose]", "values": [{"measurement": "Relative rate of inhibiting the production of acetaldehyde", "setting": "[1]", "value": 13}, {"measurement": "Relative rate of inhibiting the production of butanal", "setting": "[1]", "value": "−13"}, {"measurement": "Relative rate of inhibiting the production of decanal", "setting": "[1]", "value": 57}, {"measurement": "Relative rate of inhibiting the production of heptanal", "setting": "[1]", "value": 54}, {"measurement": "Relative rate of inhibiting the production of hexanal", "setting": "[1]", "value": 33}, {"measurement": "Relative rate of inhibiting the production of nonanal", "setting": "[1]", "value": "−54"}, {"measurement": "Relative rate of inhibiting the production of octanal", "setting": "[1]", "value": 43}, {"measurement": "Relative rate of inhibiting the production of pentanal", "setting": "[1]", "value": "−15"}, {"measurement": "Relative rate of inhibiting the production of propanal", "setting": "[1]", "value": 32}, {"measurement": "Relative rate of inhibiting the production of total aldehydes", "setting": "[1]", "value": 20}, {"measurement": "Effect on lowering iron taste and/or smell", "setting": "[2]; saccharide 0.5%", "value": "−"}, {"measurement": "Effect on lowering iron taste and/or smell", "setting": "[2]; saccharide 1.0%", "value": "−"}, {"measurement": "Effect on lowering iron taste and/or smell", "setting": "[2]; saccharide 1.5%", "value": "−"}, {"measurement": "Effect on lowering iron taste and/or smell", "setting": "[2]; saccharide 2.0%", "value": "−"}, {"measurement": "Effect on lowering iron taste and/or smell", "setting": "[2]; saccharide 5.0%", "value": "−"}, {"measurement": "Concentration effective on lowering unpleasant taste and/or smell of aqueous iron ion solution", "setting": "[2]", "value": "not effective"}, {"measurement": "Relative rate of inhibiting the production of 2,3-butandion", "setting": "[3]", "value": 95}, {"measurement": "Relative rate of inhibiting the production of acetaldehyde", "setting": "[3]", "value": 44}, {"measurement": "Relative rate of inhibiting the production of isobutanal", "setting": "[3]", "value": 52}, {"measurement": "Relative rate of inhibiting the production of other aldehydes", "setting": "[3]", "value": 0}, {"measurement": "Relative rate of inhibiting the production of propanal", "setting": "[3]", "value": 43}, {"measurement": "Relative rate of inhibiting the production of total aldehydes", "setting": "[3]", "value": 48}, {"measurement": "Relative rate of inhibiting the production of hydrogen sulfide", "setting": "[4]", "value": 12}]}]}
